From patent publication US20050176813A1, “Novel chalcone derivatives and uses thereof” (priority 2002, published 2005)
Like-named read-outs stand apart in the source and are kept apart here.

Experiments:
[1] = Cytotoxicity in vitro (remark in Table 1, summary of Table 2); assay type: cell-based; conditions: for Cytotoxicity in-vitro (summary of Table 2): MEL and Jurkat cells; for Cytotoxicity (remark in Table 1): cells not given
Protocol: (§1) Jurkat E6-1 and MEL were seeded at 5×10^5 cells/ml in twelve-well plates. Drug (100 nM, 1 μM, 2.5 μM and 10 μM) was added in a final DMSO concentration of 0.1%. After 48 h of incubation, cells were harvested by sucking them off the plates. Cells were centrifuged, resuspended in 0.5 ml PBS containing 1 μg/ml propidium iodide (PI), and red fluorescence measured on a FACScan flow cytometer (Becton Dickinson) after 20 min (10^4 cells of every sample being analyzed). The percentage of dead cells was determined by their PI uptake. Incubation with 20% DMSO served as a control for setting the gates of the flow cytometer for dead cells.

[2] = test system: MEL cells; assay: Flow cytometric measurement of cell viability (PI uptake), MEL cells; assay type: cell-based; conditions: 48 h
Protocol: (§2) Flow Cytometric Measurement of Cell Viability
as §1

[3] = test system: mice; assay: Toxicity on intravenous injection into mice; assay type: in vivo
[4] = test system: human peripheral blood lymphocytes; assay: Proliferation test, [3H]-thymidine incorporation assay, anti-CD3 stimulated; assay type: cell-based; conditions: for Antiproliferative potency compared with Example 1: FIG. 1; for EC50: Homo sapiens, Lymphocyte, anti-CD3 stimulation, 48 h, read-out: EC50, suppression of proliferation of human peripheral blood lymphocytes
Protocol: Proliferation Test [^3H]-Thymidine Incorporation Assay
Resting peripheral blood mononuclear cells from healthy volunteers were seeded at 2×10^5 cells per well in medium (RPMI 1640 supplemented 10% fetal calf serum, 2 mM glutamine, 1 mM sodium pyruvate, 1% nonessential amino acids, 100 units/ml penicillin, 100 μg/ml streptomycin and 50 μM β-mercaptoethanol) in flat-bottom 96 well plates (final volume 200 μl). Cells pre-incubated with drug (60 min), were stimulated with 5 ng/ml anti-CD3 Ab) for 48 h. [^3H]-Thymidine (1 μCi per well) was added for the last 6 h. Cells were harvested onto glass fibre filters and radioactivity measured in a scintillation counter. All experiments were done in triplicate. Results are reported as normalised for maximum [^3H]-thymidine incorporation for controls.

[5] = test system: Jurkat E6-1; assay: Flow cytometric measurement of cell viability (PI uptake), Jurkat T-cells; assay type: cell-based; conditions: 48 h
Protocol: as §2, §1

[6] = target: T1, Kv1.3 (Homo sapiens, UniProt P22001); assay: Kv1.3 channel block, estimated Kd (Table 1); assay type: binding
[7] = target: Kv1.5 (Homo sapiens, UniProt P22460); assay: Kv1.5 channel block, estimated Kd (Table 1); assay type: binding
[8] = target: T1, Kv1.3; conditions: cited from earlier work
[9] = target: Kv1.1 (Homo sapiens, UniProt Q09470); assay: Kv1.1 channel block, estimated Kd (Table 1); assay type: binding
[10] = target: Kv1.7 (Homo sapiens, UniProt Q96RP8); assay: Kv1.7 channel block, estimated Kd (Table 1); assay type: binding
[11] = target: IK (Homo sapiens, UniProt O15554); assay: IK channel inhibition (Table 1); assay type: binding; conditions: at 20 μM
[12] = injected intravenously, dose not stated
[13] = Kv1.3, area, read-out: Est. Kd, Kd area
[14] = Kv1.3, end, read-out: Est. Kd, Kd end
[15] = Kv1.3, peak, read-out: Est. Kd, Kd peak
[16] = Kv1.5, end, read-out: Est. Kd, Kd end
[17] = Kv1.5, peak, read-out: Est. Kd, Kd peak
[18] = Kv1.1, area, read-out: Est. Kd, Kd area
[19] = Kv1.1, end, read-out: Est. Kd, Kd end
[20] = Kv1.1, peak, read-out: Est. Kd, Kd peak

T1 sequence (P22001 whole entry): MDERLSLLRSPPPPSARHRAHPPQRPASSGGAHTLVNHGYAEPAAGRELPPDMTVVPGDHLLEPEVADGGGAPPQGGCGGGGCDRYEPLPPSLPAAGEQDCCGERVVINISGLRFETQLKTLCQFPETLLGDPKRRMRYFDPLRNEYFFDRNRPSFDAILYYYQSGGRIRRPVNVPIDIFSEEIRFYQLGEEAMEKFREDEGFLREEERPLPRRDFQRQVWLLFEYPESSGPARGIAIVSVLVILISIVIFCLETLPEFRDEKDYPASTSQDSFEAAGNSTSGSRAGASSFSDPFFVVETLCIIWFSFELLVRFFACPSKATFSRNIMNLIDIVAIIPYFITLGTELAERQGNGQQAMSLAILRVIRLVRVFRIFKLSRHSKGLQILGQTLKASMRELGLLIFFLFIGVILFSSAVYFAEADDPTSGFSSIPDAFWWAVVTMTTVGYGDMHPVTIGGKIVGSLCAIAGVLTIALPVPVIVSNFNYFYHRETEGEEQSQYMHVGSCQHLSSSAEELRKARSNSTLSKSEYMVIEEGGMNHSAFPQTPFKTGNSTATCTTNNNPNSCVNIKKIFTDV
Sequence of Kv1.7 (Q96RP8 whole entry): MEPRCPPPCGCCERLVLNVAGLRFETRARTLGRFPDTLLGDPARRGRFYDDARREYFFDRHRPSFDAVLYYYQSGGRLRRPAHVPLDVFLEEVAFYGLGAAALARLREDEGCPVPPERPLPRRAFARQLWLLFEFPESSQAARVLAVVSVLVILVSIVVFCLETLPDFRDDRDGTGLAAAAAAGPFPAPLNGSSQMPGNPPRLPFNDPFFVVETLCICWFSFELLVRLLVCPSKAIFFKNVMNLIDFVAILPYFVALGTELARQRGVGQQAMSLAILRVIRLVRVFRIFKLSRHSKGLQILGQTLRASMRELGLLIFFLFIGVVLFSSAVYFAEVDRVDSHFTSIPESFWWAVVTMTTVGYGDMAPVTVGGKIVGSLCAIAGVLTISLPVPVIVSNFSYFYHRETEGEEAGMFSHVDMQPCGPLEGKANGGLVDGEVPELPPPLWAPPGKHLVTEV
Sequence of Kv1.1 (Q09470 whole entry): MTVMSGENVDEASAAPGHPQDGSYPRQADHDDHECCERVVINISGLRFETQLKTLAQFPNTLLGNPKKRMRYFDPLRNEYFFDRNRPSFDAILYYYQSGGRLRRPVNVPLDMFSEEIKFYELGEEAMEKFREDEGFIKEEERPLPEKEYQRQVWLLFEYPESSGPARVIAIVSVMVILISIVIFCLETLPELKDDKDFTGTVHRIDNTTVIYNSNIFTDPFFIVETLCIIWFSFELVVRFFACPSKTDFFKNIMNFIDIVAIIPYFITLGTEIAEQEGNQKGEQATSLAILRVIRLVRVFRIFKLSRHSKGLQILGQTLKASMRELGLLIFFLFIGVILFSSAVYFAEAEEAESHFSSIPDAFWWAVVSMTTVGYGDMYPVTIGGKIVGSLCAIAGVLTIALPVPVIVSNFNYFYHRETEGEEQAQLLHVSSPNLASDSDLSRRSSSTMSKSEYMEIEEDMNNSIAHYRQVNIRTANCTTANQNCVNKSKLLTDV
Sequence of Kv1.5 (P22460 whole entry): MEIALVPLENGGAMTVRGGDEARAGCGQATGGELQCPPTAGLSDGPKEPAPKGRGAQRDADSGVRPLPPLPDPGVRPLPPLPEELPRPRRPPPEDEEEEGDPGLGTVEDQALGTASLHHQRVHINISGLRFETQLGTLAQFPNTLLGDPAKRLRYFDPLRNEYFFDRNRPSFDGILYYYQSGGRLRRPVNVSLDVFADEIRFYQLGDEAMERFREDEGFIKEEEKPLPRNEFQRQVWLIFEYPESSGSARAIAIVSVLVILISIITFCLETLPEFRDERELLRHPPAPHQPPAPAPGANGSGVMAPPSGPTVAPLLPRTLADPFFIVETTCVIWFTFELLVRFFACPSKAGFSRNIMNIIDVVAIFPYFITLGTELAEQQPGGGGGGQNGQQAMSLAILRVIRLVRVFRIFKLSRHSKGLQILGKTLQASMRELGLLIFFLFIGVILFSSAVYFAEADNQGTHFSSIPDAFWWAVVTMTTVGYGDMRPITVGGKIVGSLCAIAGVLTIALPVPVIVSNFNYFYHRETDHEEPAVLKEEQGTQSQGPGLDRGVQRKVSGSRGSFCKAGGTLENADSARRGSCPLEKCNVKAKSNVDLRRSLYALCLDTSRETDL

Question: Which “Cytotoxicity in-vitro (summary of Table 2)” value (from here on “Cytotoxicity in-vitro”) [1] does the source give for `COc1cccc(/C=C/C(=O)c2c(O)c(OC)c3occc3c2OC)c1` (single isomer, unassigned) [Example 24] here?
Answer: non-cytotoxic

Question: What about the “percentage of dead cells (PI uptake)” value ([2]; 100 nM) of the same compound?
Answer: 3.53%

Question: And the “percentage of dead cells (PI uptake)” value ([2]; 1 μM)?
Answer: 3.73%

Question: What about the “percentage of dead cells (PI uptake)” value ([2]; 2.5 μM) of the same compound?
Answer: 5.26%

Question: What about the “percentage of dead cells (PI uptake)” value ([2]; 10 μM) of the same compound?
Answer: 3.00%

Question: And the Toxicity in mice [3, 12]?
Answer: non-toxic

Question: And the “Antiproliferative potency compared with Example 1” value [4]?
Answer: even more potently antiproliferative

Question: And the EC50 [4]?
Answer: 1000 nM

Question: What about the “percentage of dead cells (PI uptake)” value ([5]; 100 nM) of the same compound?
Answer: 2.41%

Question: And the “percentage of dead cells (PI uptake)” value ([5]; 1 μM)?
Answer: 2.81%

Question: What about the “percentage of dead cells (PI uptake)” value ([5]; 2.5 μM) of the same compound?
Answer: 2.31%

Question: And the “percentage of dead cells (PI uptake)” value ([5]; 10 μM)?
Answer: 9.8%

Question: And the Kd [6, 13]?
Answer: 800 nM

Question: What about the Kd [6, 14] of the same compound?
Answer: 250 to 300 nM

Question: And the Kd [6, 15]?
Answer: 900 to 1100 nM

Question: And the Kd [7, 16]?
Answer: 6000 nM

Question: And the Kd [7, 17]?
Answer: 36000 nM

Question: Which “Blocking activity on the Kv1.3 channel” value ([8]; background) does the source give for `COc1c2occc2cc2ccc(=O)oc12` [8-Methoxypsoralen] here?
Answer: blocking activity

Question: Which “Cytotoxicity in-vitro” value [1] does the source give for `COc1c(C(=O)/C=C/c2ccccc2)c(O)c(OC)c2occc12` [Example 1] here?
Answer: non-cytotoxic

Question: And the “percentage of dead cells (PI uptake)” value ([2]; 100 nM)?
Answer: 4.95%

Question: What about the “percentage of dead cells (PI uptake)” value ([2]; 1 μM) of the same compound?
Answer: 6.21%

Question: And the “percentage of dead cells (PI uptake)” value ([2]; 2.5 μM)?
Answer: 6.70%

Question: And the “percentage of dead cells (PI uptake)” value ([2]; 10 μM)?
Answer: 5.88%

Question: And the Toxicity in mice ([3]; 30 uM injected intravenously)?
Answer: non-toxic

Question: And the EC50 [4]?
Answer: 1000 nM

Question: What about the Kd [9, 18] of the same compound?
Answer: 1200 nM

Question: What about the Kd [9, 19] of the same compound?
Answer: 700 nM

Question: What about the Kd [9, 20] of the same compound?
Answer: 12000 nM

Question: And the “percentage of dead cells (PI uptake)” value ([5]; 100 nM)?
Answer: 3.02%

Question: And the “percentage of dead cells (PI uptake)” value ([5]; 1 μM)?
Answer: 1.47%

Question: What about the “percentage of dead cells (PI uptake)” value ([5]; 2.5 μM) of the same compound?
Answer: 1.78%

Question: And the “percentage of dead cells (PI uptake)” value ([5]; 10 μM)?
Answer: 8.10%

Question: What about the “Block phasic or not” value ([10]; Kv1.7) of the same compound?
Answer: phasic

Question: What about the Kd ([10]; Kv1.7, end, read-out: Est. Kd, Kd end) of the same compound?
Answer: 5000 nM

Question: And the Kd ([10]; Kv1.7, peak, read-out: Est. Kd, Kd peak)?
Answer: 25000 nM

Question: And the IK inhibition [11]?
Answer: no inhibition

Question: And the Kd [6, 14]?
Answer: 120 nM

Question: What about the Kd [6, 15] of the same compound?
Answer: 750 nM

Question: And the Kd ([6]; T-lymphocytes, read-out: Kd (dissociation constant), block of Kv1.3 voltage gated potassium channel in T-lymphocytes)?
Answer: 400 nM

Question: What about the “Selectivity over Kv1.5” value ([7]; Kv1.3 over Kv1.5) of the same compound?
Answer: Cinnamon needles. Selectivity over Kv1.5 is 25-fold. Mp 125-126

Question: With `COc1c(C(=O)/C=C/c2cccc(O)c2)c(O)c(OC)c2occc12` [Example 18] as the compound, how does the “Cytotoxicity in-vitro” value [1] read?
Answer: non-cytotoxic

Question: What about the “percentage of dead cells (PI uptake)” value ([2]; 100 nM) of the same compound?
Answer: 6.89%

Question: What about the “percentage of dead cells (PI uptake)” value ([2]; 1 μM) of the same compound?
Answer: 3.60%

Question: What about the “percentage of dead cells (PI uptake)” value ([2]; 2.5 μM) of the same compound?
Answer: 6.98%

Question: What about the “percentage of dead cells (PI uptake)” value ([2]; 10 μM) of the same compound?
Answer: 4.41%

Question: What about the Toxicity in mice [3, 12] of the same compound?
Answer: non-toxic

Question: And the “Antiproliferative potency compared with Example 1” value [4]?
Answer: even more potently antiproliferative

Question: What about the EC50 [4] of the same compound?
Answer: 500 nM

Question: And the Kd [9, 18]?
Answer: 1700 nM

Question: What about the Kd [9, 19] of the same compound?
Answer: 1000 nM

Question: And the Kd [9, 20]?
Answer: 15000 nM

Question: What about the “percentage of dead cells (PI uptake)” value ([5]; 100 nM) of the same compound?
Answer: 2.57%

Question: What about the “percentage of dead cells (PI uptake)” value ([5]; 1 μM) of the same compound?
Answer: 2.22%

Question: What about the “percentage of dead cells (PI uptake)” value ([5]; 2.5 μM) of the same compound?
Answer: 2.59%

Question: What about the “percentage of dead cells (PI uptake)” value ([5]; 10 μM) of the same compound?
Answer: 4.70%

Question: And the Kd ([10]; Kv1.7, time-independent, read-out: Est. Kd)?
Answer: 50000 nM

Question: And the Kd [6, 13]?
Answer: 700 nM

Question: And the Kd [6, 14]?
Answer: 250 nM

Question: And the Kd [6, 15]?
Answer: 5000 nM

Question: And the Kd [7, 16]?
Answer: 10000 nM

Question: And the Kd [7, 17]?
Answer: 16000 nM

Question: What does the source list for `COc1c(C(=O)/C=C/c2cc(Br)cs2)c(O)c(OC)c2occc12` [Example 54]?
Answer: Cytotoxicity (remark in Table 1) [1]: Cytotoxic Mp 139 Brown needles; Kd [6, 14]: 250 nM; Kd [6, 15]: 4000 nM

Question: For `COc1c(C(=O)/C=C/c2ccc(C)s2)c(O)c(OC)c2occc12` [Example 55], which “Cytotoxicity (remark in Table 1)” value [1] is on record?
Answer: Cytotoxic Mp 103 Orange prisms

Question: What about the Kd [6, 14] of the same compound?
Answer: 500 nM

Question: What about the Kd [6, 15] of the same compound?
Answer: 3000 nM

Question: Which “Blocking activity on the Kv1.3 channel” value [8] does the source give for `COc1c(C(C)=O)c(O)c(OC)c2occc12` [khellinone] here?
Answer: blocking activity
